Measurements taken from US20190367516A1 (Bayer Pharma Aktiengesellschaft, priority 2015, published 2019).

Target: T1, human M2 receptor (Homo sapiens, UniProt P08172)
T1 sequence (P08172 1-466): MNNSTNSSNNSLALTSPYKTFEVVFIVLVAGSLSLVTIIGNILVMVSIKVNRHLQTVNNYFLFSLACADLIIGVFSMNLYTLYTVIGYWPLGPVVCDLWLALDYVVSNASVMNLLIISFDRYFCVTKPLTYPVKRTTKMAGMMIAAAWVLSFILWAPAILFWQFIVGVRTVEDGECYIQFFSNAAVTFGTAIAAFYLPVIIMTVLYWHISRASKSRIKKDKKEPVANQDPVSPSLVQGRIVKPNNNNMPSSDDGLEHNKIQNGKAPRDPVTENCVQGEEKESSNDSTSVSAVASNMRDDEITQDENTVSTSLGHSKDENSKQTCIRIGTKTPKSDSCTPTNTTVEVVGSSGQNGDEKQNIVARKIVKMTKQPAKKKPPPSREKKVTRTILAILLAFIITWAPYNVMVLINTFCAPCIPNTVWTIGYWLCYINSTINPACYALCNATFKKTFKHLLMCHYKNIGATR
Conditions: Receptor activity EC50, M2-GIRK1/4 activation test, acetylcholine at EC20; allosteric potency; in some cases mean values from two or more determinations

| EC50 [µM] | Compound |
| --- | --- |
| 0.01 | CN(C)c1ccc2c(=O)c(C(=O)NC34CCC(CC3)CC4)cn(-c3ccc(F)cc3Cl)c2n1 [Example 152, N-(Bicyclo[2.2.2]oct-1-yl)-1-(2-chloro-4-fluorophenyl)-7-(dimethylamino)-4-oxo-1,4-dihydro-1,8-naphthyridine-3-carboxamide] |
| 0.104 | CN(C)c1ccc2c(=O)c(C(=O)NC34CC5CC(C3)CC(C(F)(F)F)(C5)C4)cn(-c3ccc(F)cc3Cl)c2n1 [Example 153, 1-(2-Chloro-4-fluorophenyl)-7-(dimethylamino)-4-oxo-N-[3-(trifluoromethyl)tricyclo[3.3.1.1^3,7]dec-1-yl]-1,4-dihydro-1,8-naphthyridine-3-carboxamide] |
| 0.158 | CN(C)c1ccc2c(=O)c(C(=O)NC3CC34CCCCC4)cn(-c3ccc(F)cc3Cl)c2n1 (stereo not drawn) [Example 154, 1-(2-Chloro-4-fluorophenyl)-7-(dimethylamino)-4-oxo-N-(spiro[2.5]oct-1-yl)-1,4-dihydro-1,8-naphthyridine-3-carboxamide] |
| 0.173 | CN(C)c1ccc2c(=O)c(C(=O)NC(C)(C)C)cn(-c3ccc(F)cc3Cl)c2n1 [Example 155, N-tert-Butyl-1-(2-chloro-4-fluorophenyl)-7-(dimethylamino)-4-oxo-1,4-dihydro-1,8-naphthyridine-3-carboxamide] |
| 0.184 | CC(C)Nc1ccc2c(=O)c(C(=O)NC34CC5CC(CC(C5)C3)C4)cn(-c3ccc(F)cc3F)c2n1 [Example 158, 1-(2,4-Difluorophenyl)-4-oxo-7-(propan-2-ylamino)-N-(tricyclo[3.3.1.1^3,7]dec-1-yl)-1,4-dihydro-1,8-naphthyridine-3-carboxamide] |
| 0.085 | CNc1ccc2c(=O)c(C(=O)NC34CC5CC(C3)CC(C(F)(F)F)(C5)C4)cn(-c3ccc(F)cc3F)c2n1 [Example 160, 1-(2,4-Difluorophenyl)-7-(methylamino)-4-oxo-N-[3-(trifluoromethyl)tricyclo[3.3.1.1^3,7]dec-1-yl]-1,4-dihydro-1,8-naphthyridine-3-carboxamide] |
| 0.137 | CNc1ccc2c(=O)c(C(=O)NC34CC5CC(C3)C(F)(F)C(C5)C4)cn(-c3ccc(F)cc3F)c2n1 [Example 161] |
| 0.038 | CNc1ccc2c(=O)c(C(=O)NC34CCC(CC3)CC4)cn(-c3ccc(F)cc3F)c2n1 [Example 162] |
| 0.101 | CN(c1ccc2c(=O)c(C(=O)NC34CC5CC(CC(C5)C3)C4)cn(-c3ccc(F)cc3F)c2n1)S(C)(=O)=O [Example 169] |
| 0.03 | O=C(NC12CC3CC(CC(C3)C1)C2)c1cn(-c2ccc(F)cc2F)c2nc(N3CC(F)(F)CCC3=O)ccc2c1=O [Example 171] |
| 0.083 | O=C(NC12CC3CC(CC(C3)C1)C2)c1cn(-c2ccc(F)cc2F)c2nc(N3CCOCC3=O)ccc2c1=O [Example 172] |
| 0.197 | CC[C@@H](NC(=O)c1cn(-c2ccc(F)cc2F)c2nc(N3CCCCC3=O)ccc2c1=O)C(F)(F)F [Example 178] |
| 0.169 | CC(NC(=O)c1cn(-c2ccc(F)cc2F)c2nc(N3CCCC3=O)ccc2c1=O)C(F)(F)F (stereo not drawn) [Example 179] |
| 0.115 | CCC(NC(=O)c1cn(-c2ccc(F)cc2F)c2nc(N3CCCS3(=O)=O)ccc2c1=O)C(F)(F)F (stereo not drawn) [Example 180] |
| 0.182 | O=C(NCc1c(Cl)cccc1Cl)c1cn(-c2ccc(F)cc2F)c2nc(N3CCCS3(=O)=O)ccc2c1=O [Example 182, N-(2,6-Dichlorobenzyl)-1-(2,4-difluorophenyl)-7-(1,1-dioxido-1,2-thiazolidin-2-yl)-4-oxo-1,4-dihydro-1,8-naphthyridine-3-carboxamide] |
| 0.129 | CC(C)(NC(=O)c1cn(-c2ccc(F)cc2F)c2nc(N3CCNC3=O)ccc2c1=O)c1c(F)cccc1F [Example 184, 1-(2,4-Difluorophenyl)-N-[2-(2,6-difluorophenyl)propan-2-yl]-4-oxo-7-(2-oxoimidazolidin-1-yl)-1,4-dihydro-1,8-naphthyridine-3-carboxamide] |
| 0.03 | O=C(NC12CC3CC(CC(C3)C1)C2)c1cn(-c2ccc(F)cc2F)c2nc(N3CCNC3=O)ccc2c1=O [Example 186, 1-(2,4-Difluorophenyl)-4-oxo-7-(2-oxoimidazolidin-1-yl)-N-(tricyclo[3.3.1.1^3,7]dec-1-yl)-1,4-dihydro-1,8-naphthyridine-3-carboxamide] |
| 0.293 | CC[C@@H](NC(=O)c1cn(-c2ccc(F)cc2F)c2nc(N3CC(OC(=O)NC)CC3=O)ccc2c1=O)C(F)(F)F (stereo partly drawn) [Example 200, (3S)-1-[8-(2,4-Difluorophenyl)-5-oxo-6-{[(2R)-1,1,1-trifluorobutan-2-yl]carbamoyl}-5,8-dihydro-1,8-naphthyridin-2-yl]-5-oxopyrrolidin-3-yl methyl carbamate] |
| 0.207 | CC(NC(=O)c1cn(-c2ccc(F)cc2F)c2nc(N3C[C@@H](O)CC3=O)ccc2c1=O)c1ccccc1F (stereo partly drawn) [Example 235, 1-(2,4-Difluorophenyl)-N-[1-(2-fluorophenyl)ethyl]-7-[(4S)-4-hydroxy-2-oxopyrrolidin-1-yl]-4-oxo-1,4-dihydro-1,8-naphthyridine-3-carboxamide] |
| 0.86 | COCC(C)(NC(=O)c1cn(-c2ccc(F)cc2F)c2nc(N3C[C@@H](O)CC3=O)ccc2c1=O)C(F)(F)F (stereo partly drawn) [Example 236, 1-(2,4-Difluorophenyl)-7-[(4S)-4-hydroxy-2-oxopyrrolidin-1-yl]-4-oxo-N-[1,1,1-trifluoro-3-methoxy-2-methylpropan-2-yl]-1,4-dihydro-1,8-naphthyridine-3-carboxamide] |
| 0.751 | O=C(NC1(C(F)(F)F)CCOCC1)c1cn(-c2ccc(F)cc2F)c2nc(N3C[C@@H](O)CC3=O)ccc2c1=O [Example 237, 1-(2,4-Difluorophenyl)-7-[(4S)-4-hydroxy-2-oxopyrrolidin-1-yl]-4-oxo-N-[4-(trifluoromethyl)tetrahydro-2H-pyran-4-yl]-1,4-dihydro-1,8-naphthyridine-3-carboxamide] |

| Compound | EC50 [µM] |
| --- | --- |
| CN(C)c1ccc2c(=O)c(C(=O)NC3(C)CCCCC3)cn(-c3ccc(F)cc3Cl)c2n1 [Example 156, 1-(2-Chloro-4-fluorophenyl)-7-(dimethylamino)-N-(1-methylcyclohexyl)-4-oxo-1,4-dihydro-1,8-naphthyridine-3-carboxamide] | 0.086 |
| CCC12CC3CC(C1)CC(NC(=O)c1cn(-c4ccc(F)cc4Cl)c4nc(N(C)C)ccc4c1=O)(C3)C2 [Example 157, 1-(2-Chloro-4-fluorophenyl)-7-(dimethylamino)-N-(3-ethyltricyclo[3.3.1.1^3,7]dec-1-yl)-4-oxo-1,4-dihydro-1,8-naphthyridine-3-carboxamide] | 0.067 |
| O=C(NC12CC3CC(CC(C3)C1)C2)c1cn(-c2ccc(F)cc2F)c2nc(N3CCCCC3=O)ccc2c1=O [Example 165, 1-(2,4-Difluorophenyl)-4-oxo-7-(2-oxopiperidin-1-yl)-N-(tricyclo[3.3.1.1^3,7]dec-1-yl)-1,4-dihydro-1,8-naphthyridine-3-carboxamide] | 0.011 |
| O=C(NC12CC3CC(CC(C3)C1)C2)c1cn(-c2ccc(F)cc2F)c2nc(N3CCCS3(=O)=O)ccc2c1=O [Example 167] | 0.047 |
| O=C(NC12CC3CC(CC(C3)C1)C2)c1cn(-c2ccc(F)cc2F)c2nc(N3C[C@@H](O)CC3=O)ccc2c1=O [Example 170] | 0.019 |
| O=C(NC12CC3CC(CC(C3)C1)C2)c1cn(-c2ccc(F)cc2F)c2nc(N3CCC(O)CC3=O)ccc2c1=O (stereo not drawn) [Example 173] | 0.088 |
